For test [1], the system named is mouse (BALB/c, male). Nature of the test: Effect of lipopolysaccharide induction on neutrophilic infiltration in mouse lung. The class given is in vivo. The settings on record: neutrophil infiltration in BAL fluid, LPS-exposed BALB/c mouse, oral; for inhibition in vivo at 3 mg/kg / inhibition in vivo at 1 mg/kg: 5 h, read-out: SUPPRESSION RATIO. How it is done:
Effect of Lipopolysaccharide Induction on Neutrophilic Infiltration in Mouse Lung A compound to be tested was orally administrated to a mouse (BALB/c, male), and after 30 minutes, the mouse was placed in a plastic container. Lipopolysaccharide (0.3 mg/mL) dissolved in physiological saline was aerosolized with an ultrasonic wave nebulizer (NE-U17, OMRON Corporation), and exposed to the mouse for 10 minutes. After 5 hours, the anesthetized mouse was sacrificed by exsanguination. A cannula was inserted in the respiratory tract and bronchoalveolar lavage (BAL) with 1 mL of 0.85% NaCl liquid containing 0.4% sodium citrate was carried out. This operation was repeated 3 times, to obtain a BAL fluid. The BAL fluid was centrifuged at 4° C. and ×200 g for 5 minutes, and the pellet was suspended in a physiological saline containing 0.1% BSA. The number of white blood cells was counted using Turks solution with a microscope, and the total white blood cell count was calculated. The white blood cells were fixed on a glass slide using Cytospin 3 (Thermo BioAnalysis Japan K. K.). The cells were stained with Diff-Quik (SYSMEX INTERNATIONAL REAGENTS CO., LTD.), and the number thereof was counted with a microscope, and the neutrophil ratio was calculated. The neutrophil ratio was multiplied by the total white blood cell count to calculate the total neutrophil count. An effect of the compound to be tested represents a percentage (%) of suppression ratio relative to the neutrophil count in a control.

Test [2] concerns the target T1, human FPRL1 (Homo sapiens, UniProt P25090).
T1 construct: expressed in transfected cells; host or cells: HEK293 (JCRB9068, NIBIO), transient transfection with pCMV-script vectors using Lipofectamine 2000
T1 sequence (P25090 1-351): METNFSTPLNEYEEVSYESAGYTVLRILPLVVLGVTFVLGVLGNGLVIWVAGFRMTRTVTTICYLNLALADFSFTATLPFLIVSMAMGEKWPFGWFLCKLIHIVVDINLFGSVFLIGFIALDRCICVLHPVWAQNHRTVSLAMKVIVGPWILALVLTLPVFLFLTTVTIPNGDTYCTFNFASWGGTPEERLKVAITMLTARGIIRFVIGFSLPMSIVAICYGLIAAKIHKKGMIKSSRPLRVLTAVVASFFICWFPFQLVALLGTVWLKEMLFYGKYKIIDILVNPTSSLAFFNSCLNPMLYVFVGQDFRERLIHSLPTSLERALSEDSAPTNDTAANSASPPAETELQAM
Nature of the test: Measurement test of agonist activity on human FPRL1 (test of calcium mobilization in cell, HEK293 with human FPRL1 and Gα15 expression vectors). To be noted: calcium mobilization in HEK293 cells with human FPRL1 and Gα15 expression vectors. The class given is cell-based. The method in brief: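 HEK293 transiently co-transfected with human FPRL1 and Gα15, plated 24 h before assay, loaded with Fluo-4 NW dye plus probenecid. Compounds in eight 10-fold dilutions (DMSO stocks 10^−2 to 10^−9 M, then diluted 100-fold in assay buffer); calcium mobilization read on Flexstation for EC50.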
In general terms: Calcium assays in cells follow changes in intracellular calcium, usually with a dye or a luminescent sensor.

Each structure is given as a SMILES string.

As a reminder, the EC50 is the concentration needed to bring the measured effect to its halfway point. Regarding `N#Cc1ccc(NC(=O)N[C@@H]2C(=O)NC[C@H]2c2cc3c(cc2F)OCC3)cc1` (relative stereo) [Example 1-84, (−)-1-(4-cyanophenyl)-3-[(3S*,4R*)-4-(6-fluoro-2,3-dihydrobenzofuran-5-yl)-2-oxopyrrolidin-3-yl]urea], the “SUPPRESSION RATIO (%)” value in test [1] (dose 1 mg/kg) is 99.2%. Also, the EC50 in test [2] was 1.92 nM.
Consider `COc1cc(F)c([C@@H]2CNC(=O)[C@H]2NC(=O)Nc2ccccc2)c(F)c1` (relative stereo) [Example 7-2, (−)-1-[(3S*,4R*)-4-(2,6-difluoro-4-methoxyphenyl)-2-oxopyrrolidin-3-yl]-3-phenylurea], for which the “SUPPRESSION RATIO (%)” value in test [1] (dose 1 mg/kg) came to 87.7%. The EC50 in test [2] was 0.45 nM.
`COc1cc(F)c([C@@H]2CNC(=O)[C@H]2NC(=O)Nc2ccc(C)cc2)c(F)c1` (relative stereo) [Example 9-1, (−)-1-[(3S*,4R*)-4-(2,6-Difluoro-4-methoxyphenyl)-2-oxopyrrolidin-3-yl]-3-(p-tolyl)urea]: the “SUPPRESSION RATIO (%)” value in test [1] (dose 3 mg/kg) was determined as 57.0%. The EC50 in test [2] is 0.86 nM.
As to `CCN1C[C@@H](c2ccc(OC)cc2)[C@H](NC(=O)Nc2ccc(F)cc2)C1=O` (relative stereo) [Example 12-1, (−)-1-[(3S*,4R*)-1-Ethyl-4-(4-methoxyphenyl)-2-oxopyrrolidin-3-yl]-3-(4-fluorophenyl) urea], the inhibition in vivo at 3 mg/kg in test [1] (dose 3 mg/kg) turned out to be 97.4%. Moreover, the concentration for a half-maximal effect (EC50) in test [2] amounted to 0.13 nM.
For the compound `COc1ccc([C@@H]2CNC(=O)[C@H]2NC(=O)Nc2ccc(F)cc2)cc1` (single isomer, unassigned) [EXAMPLE 1-1, (−)-1-(4-Fluorophenyl)-3-[(3S*,4R*)-4-(4-methoxyphenyl)-2-oxopyrrolidin-3-yl]urea], the inhibition in vivo at 1 mg/kg in test [1] (dose 1 mg/kg) was 95.1%. In test [2], the EC50 was 0.09 nM.
With `COc1ccc([C@@H]2CNC(=O)[C@H]2NC(=O)Nc2ccc(Cl)cc2)cc1` (single isomer, unassigned) [EXAMPLE 1-2, (-)-1-(4-chlorophenyl)-3-[(3S*,4R*)-4-(4-methoxyphenyl)-2-oxopyrrolidin-3-yl]urea], the inhibition in vivo at 1 mg/kg in test [1] (dose 1 mg/kg) amounted to 99.2%. The EC50 in test [2] is 0.09 nM.
For the compound `COc1ccc([C@@H]2CNC(=O)[C@H]2NC(=O)Nc2ccc(F)cc2)c(F)c1` (single isomer, unassigned) [EXAMPLE 1-9, (−)-1-[(3S*,4R*)-4-(2-fluoro-4-methoxyphenyl)-2-oxopyrrolidin-3-yl]-3-(4-fluorophenyl)urea], the inhibition in vivo at 3 mg/kg in test [1] (dose 3 mg/kg) is 98.5%. For the same compound, the EC50 in test [2] stood at 0.45 nM.
For `COc1cc(F)c([C@@H]2CNC(=O)[C@H]2NC(=O)Nc2ccc(F)cc2)c(F)c1` (single isomer, unassigned) [EXAMPLE 1-12, (−)-1-[(3S*,4R*)-4-(2,6-difluoro-4-methoxyphenyl)-2-oxopyrrolidin-3-yl]-3-(4-fluorophenyl)urea], the inhibition in vivo at 1 mg/kg in test [1] (dose 1 mg/kg) is 96.8%. Moreover, the EC50 in test [2] came to 0.06 nM.
On the same counts, the results for `O=C(Nc1ccc(F)cc1)N[C@@H]1C(=O)NC[C@H]1c1cc2c(cc1F)OCC2` (single isomer, unassigned) [EXAMPLE 1-16, (−)-1-[(3S*,4R*)-4-(6-fluoro-2,3-dihydrobenzofuran-5-yl)-2-oxopyrrolidin-3-yl]-3-(4-fluorophenyl)urea] are 95.8% and 0.24 nM.
Consider `COc1cnc([C@@H]2CNC(=O)[C@H]2NC(=O)Nc2ccc(F)cc2)c(F)c1` (single isomer, unassigned) [EXAMPLE 1-18, (−)-1-[(3S*,4R*)-4-(3-fluoro-5-methoxypyridin-2-yl)-2-oxopyrrolidin-3-yl]-3-(4-fluorophenyl)urea], for which, in test [1] (dose 1 mg/kg), the inhibition in vivo at 1 mg/kg was found to be 98.3%. Besides, the EC50 in test [2] was 0.36 nM.
On to `COc1cc(F)c([C@@H]2CNC(=O)[C@H]2NC(=O)Nc2ccc(Cl)cc2)c(F)c1` (single isomer, unassigned) [EXAMPLE 1-22, (−)-1-(4-chlorophenyl)-3-[(3S*,4R*)-4-(2,6-difluoro-4-methoxyphenyl)-2-oxopyrrolidin-3-yl]urea], for which, in test [1] (dose 1 mg/kg), the inhibition in vivo at 1 mg/kg was determined as 93.1%. In test [2], the EC50 was determined as 0.11 nM.
Turning to `COc1cc(F)c([C@@H]2CNC(=O)[C@H]2NC(=O)Nc2ccc(C#N)cc2)c(F)c1` (single isomer, unassigned) [EXAMPLE 1-23, (−)-1-(4-cyanophenyl)-3-[(3S*,4R*)-4-(2,6-difluoro-4-methoxyphenyl)-2-oxopyrrolidin-3-yl]urea], the inhibition in vivo at 3 mg/kg in test [1] (dose 3 mg/kg) amounted to 98.9%. Besides, in test [2], the EC50 turned out to be 0.78 nM.
In the case of `COc1ccc([C@@H]2CN(CCO)C(=O)[C@H]2NC(=O)Nc2ccc(F)cc2)c(F)c1` (single isomer, unassigned) [EXAMPLE 25-1, (−)-1-[(3S*,4R*)-4-(2-Fluoro-4-methoxyphenyl)-1-(2-hydroxyethyl)-2-oxopyrrolidin-3-yl]-3-(4-fluorophenyl)urea], in test [1] (dose 3 mg/kg), the inhibition in vivo at 3 mg/kg was 99.1%. Besides, in test [2], the EC50 turned out to be 0.04 nM.
Take `COc1cc(F)c([C@@H]2CN(CCO)C(=O)[C@H]2NC(=O)Nc2ccc(F)cc2)c(F)c1` (single isomer, unassigned) [EXAMPLE 26-1, (−)-1-[(3S*,4R*)-4-(2,6-Difluoro-4-methoxyphenyl)-1-(2-hydroxyethyl)-2-oxopyrrolidin-3-yl]-3-(4-fluorophenyl)urea]: the inhibition in vivo at 1 mg/kg in test [1] (dose 1 mg/kg) amounted to 99.6%. In addition, the EC50 in test [2] came to 0.07 nM.
Take `CO/N=C1\NC[C@@H](c2ccc(OC)cc2)[C@@H]1NC(=O)Nc1ccc(F)cc1` (single isomer, unassigned) [EXAMPLE 32-1, (−)-1-(4-Fluorophenyl)-3-[(3S*,4R*,Z)-2-(methoxyimino)-4-(4-methoxyphenyl)pyrrolidin-3-yl]urea]: the inhibition in vivo at 3 mg/kg in test [1] (dose 3 mg/kg) worked out at 99%. For the same compound, the EC50 in test [2] turned out to be 0.13 nM.
Regarding `CO/N=C1\NC[C@@H](c2c(F)cc(OC)cc2F)[C@@H]1NC(=O)Nc1ccc(F)cc1` (single isomer, unassigned) [EXAMPLE 32-3, (−)-1-[(3S*,4R*,Z)-4-(2,6-difluoro-4-methoxyphenyl)-2-(methoxyimino)pyrrolidin-3-yl]-3-(4-fluorophenyl)urea], the inhibition in vivo at 3 mg/kg in test [1] (dose 3 mg/kg) came out at 99.1%. Besides, in test [2], the EC50 amounted to 0.05 nM.
For `COc1cc(F)c([C@@H]2CN/C(=N\OCCO)[C@H]2NC(=O)Nc2ccc(F)cc2)c(F)c1` (single isomer, unassigned) [EXAMPLE 32-5, (−)-1-{(3S*,4R*,Z)-4-(2,6-difluoro-4-methoxyphenyl)-2-[(2-hydroxyethoxy)imino]pyrrolidin-3-yl}-3-(4-fluorophenyl)urea], the inhibition in vivo at 1 mg/kg in test [1] (dose 1 mg/kg) stood at 99.8%. The EC50 in test [2] is 0.03 nM.
On to `COc1cc(F)c([C@@H]2CN/C(=N\OCCO)[C@H]2NC(=O)Nc2ccc(C)cc2)c(F)c1` (single isomer, unassigned) [EXAMPLE 32-12, (−)-1-{(3S*,4R*,Z)-4-(2,6-difluoro-4-methoxyphenyl)-2-[(2-hydroxyethoxy)imino]pyrrolidin-3-yl}-3-(p-tolyl)urea], for which the “SUPPRESSION RATIO (%)” value in test [1] (dose 1 mg/kg) is on record as 96.8%. Further, the concentration giving a half-maximal response (EC50) in test [2] was determined as 0.27 nM.

The values above are taken from US9822069B2, “Urea derivative or pharmacologically acceptable salt thereof” (KYORIN PHARMACEUTICAL CO. LTD., priority 2013, dated 2017).
